Data: patent US4894458A, “Quinolonecarboxylic acid derivatives and their preparation” (Kyorin Pharmaceutical Co., Ltd., priority 1986, dated 1990)
In brackets after ≈: the same amount, converted by molar mass. Like-named read-outs stand apart in the source and are kept apart here.

Key:
Type in all cases: cell-based
[1] = test system: P. maltophilia GIFU 2491; experiment: In vitro antibacterial activity (aerobic bacteria), MIC; conditions: Stenotrophomonas maltophilia, GIFU2491
[2] = test system: P. cepacia GIFU 518; experiment: as above; conditions: Burkholderia cepacia, GIFU518
[3] = test system: Peptococcus magnus KY 017; experiment: In vitro antibacterial activity (anaerobic bacteria), MIC; conditions: Finegoldia magna, KY017, Gram +, 10^6 cells/ml, read-out: MIC
Method: (§1) Minimal inhibitory concentrations (MICs) were determined in accordance with the method recommended by Japan Society of Chemotherapy.

[4] = test system: P. aeruginosa IFO 12689; experiment: In vitro antibacterial activity (aerobic bacteria), MIC; conditions: Pseudomonas aeruginosa, IFO12689
[5] = test system: Bacillus subtilis PCI 219; experiment: as above; conditions: PCI219
[6] = test system: B. thetaiotaomicron (0661); experiment: In vitro antibacterial activity (anaerobic bacteria), MIC; conditions: Bacteroides thetaiotaomicron
[7] = test system: Citrobacter freundii IID 976; experiment: In vitro antibacterial activity (aerobic bacteria), MIC; conditions: Citrobacter freundii
[8] = test system: Veillonella parvula KYA 10790; experiment: In vitro antibacterial activity (anaerobic bacteria), MIC; conditions: KYA10790
[9] = test system: Propionibacterium acens 11828; experiment: as above
[10] = test system: Salmonella enteritidis IID 604; experiment: In vitro antibacterial activity (aerobic bacteria), MIC; conditions: Salmonella enterica
[11] = test system: P. aeruginosa IID 1210; experiment: as above; conditions: Pseudomonas aeruginosa, IID1210, aerobic; Gram -; 10^6 cells/ml
[12] = test system: Eubacterium lentum GAI 5242; experiment: In vitro antibacterial activity (anaerobic bacteria), MIC; conditions: Eggerthella lenta, GAI5242
[13] = test system: Enterobacter cloacae IID 977; experiment: In vitro antibacterial activity (aerobic bacteria), MIC; conditions: IID977
[14] = test system: Pst micros UPI 5464-1; experiment: microbe, parasite or virus in culture
[15] = test system: Bacteroides fragilis GM 7000; experiment: In vitro antibacterial activity (anaerobic bacteria), MIC; conditions: GM7000
[16] = test system: Serratia marcescens IID 618; experiment: In vitro antibacterial activity (aerobic bacteria), MIC; conditions: IID618, Gram -, 10^6 cells/ml
Method: as §1

[17] = test system: S. aureus IID 670 (Terajima); experiment: as above; conditions: Staphylococcus aureus, IID670, Gram +, 10^6 cells/ml
Method: as §1

[18] = test system: Acinetobacter anitratus IID 876; experiment: as above; conditions: Acinetobacter calcoaceticus, IID876, Gram -, 10^6 cells/ml, read-out: MIC
Method: as §1

[19] = test system: Shigella sonnei IID 969; experiment: as above; conditions: IID969, Gram -, 10^6 cells/ml
Method: as §1

[20] = test system: Proteus vulgaris IFO 3167; experiment: as above; conditions: IFO3167, Gram -, 10^6 cells/ml
Method: as §1

[21] = test system: Staphylococcus aureus 209 P; experiment: as above; conditions: Gram +, 10^6 cells/ml
Method: as §1

[22] = test system: Pseudomonas aeruginosa V-1; experiment: as above; conditions: Pseudomonas aeruginosa, V1, aerobic; Gram -; 10^6 cells/ml; read-out: MIC
Method: as §1

[23] = test system: K. pneumoniae 1-220S; experiment: as above; conditions: Klebsiella pneumoniae, 1220S, Gram -, 10^6 cells/ml
Method: as §1

[24] = test system: P. mirabilis IID 994; experiment: as above; conditions: Proteus mirabilis, IID994, Gram -, 10^6 cells/ml
Method: as §1

[25] = test system: Morganella morganii IID 602; experiment: as above; conditions: Morganella morganii, IID602, Gram -, 10^6 cells/ml, read-out: MIC
Method: as §1

[26] = test system: E. coli ATCC 10536; experiment: as above; conditions: Escherichia coli, ATCC10536, Gram -, 10^6 cells/ml
Method: as §1

[27] = test system: S. epidermidis IID 866; experiment: as above; conditions: Staphylococcus epidermidis, IID866, Gram +, 10^6 cells/ml
Method: as §1

[28] = test system: Fusobacterium necrophorum S-45; experiment: In vitro antibacterial activity (anaerobic bacteria), MIC; conditions: S45
[29] = test system: Clostridium difficile I-E; experiment: as above; conditions: Clostridioides difficile
[30] = test system: B. fragilis 0558; experiment: as above; conditions: Bacteroides fragilis
[31] = test system: Alcaligenes faecalis 0114002; experiment: In vitro antibacterial activity (aerobic bacteria), MIC; conditions: Alcaligenes faecalis, 0114002, aerobic; Gram -; 10^6 cells/ml
[32] = test system: Escherichia coli NIHJ JC-2; experiment: as above; conditions: NIHJJC2, aerobic, Gram -, 10^6 cells/ml
[33] = test system: C. ramosum; experiment: In vitro antibacterial activity (anaerobic bacteria), MIC; conditions: Thomasclavelia ramosa, anaerobic, Gram +, 10^6 cells/ml
[34] = test system: Klebsiella pneumoniae KY(GN)6445; experiment: In vitro antibacterial activity (aerobic bacteria), MIC
[35] = test system: B. fragilis 25285; experiment: In vitro antibacterial activity (anaerobic bacteria), MIC; conditions: Bacteroides fragilis
[36] = test system: C. perfringens KYA 13123; experiment: microbe, parasite or virus in culture; conditions: Clostridium perfringens, KYA13123
[37] = test system: Yersinia enterocolitica IID 981; experiment: microbe, parasite or virus in culture; conditions: IID981
[38] = test system: Peptostreptococcus anaerobius KYA 27337; experiment: In vitro antibacterial activity (anaerobic bacteria), MIC; conditions: KYA27337
[39] = test system: F. varium KYA 8501; experiment: as above; conditions: Fusobacterium varium, KYA8501
[40] = test system: B. distasonis 8503; experiment: as above; conditions: Parabacteroides distasonis, Gram -, 10^6 cells/ml
[41] = IID976, aerobic, Gram -, 10^6 cells/ml

SMILES | MIC [1] [µg/mL] | MIC [3] [µg/mL] | MIC [4] [µg/mL] | MIC [5] [µg/mL] | MIC [8] [µg/mL] | MIC [10] [µg/mL] | MIC [11] [µg/mL] | MIC [12] [µg/mL] | MIC [13] [µg/mL] | MIC [15] [µg/mL] | MIC [16] [µg/mL] | MIC [17] [µg/mL] | MIC [18] [µg/mL] | MIC [19] [µg/mL] | MIC [20] [µg/mL] | MIC [21] [µg/mL] | MIC [22] [µg/mL] | MIC [23] [µg/mL] | MIC [24] [µg/mL] | MIC [25] [µg/mL] | further results
Cc1c(N2CCNCC2)c(F)cc2c(=O)c(C(=O)O)cn(C3CC3)c12 [Exp. 19, 1-Cyclopropyl-6-fluoro-1,4-dihydro-8-methyl-4-oxo-7-(1-piperazinyl)-3-quinolinecarboxylic acid] | 0.39 (≈ 1.13 µM) | 0.39 (≈ 1.13 µM) | 0.78 (≈ 2.26 µM) | 0.05 (≈ 0.145 µM) | 0.39 (≈ 1.13 µM) | 0.05 (≈ 0.145 µM) | 0.78 (≈ 2.26 µM) | 0.2 (≈ 0.579 µM) | 0.05 (≈ 0.145 µM) | 0.78 (≈ 2.26 µM) | 0.05 (≈ 0.145 µM) | 0.2 (≈ 0.579 µM) | 0.2 (≈ 0.579 µM) | 0.025 (≈ 0.0724 µM) | 0.025 (≈ 0.0724 µM) | 0.2 (≈ 0.579 µM) | 0.1 (≈ 0.29 µM) | 0.05 (≈ 0.145 µM) | 0.025 (≈ 0.0724 µM) | 0.1 (≈ 0.29 µM) | MIC ([2]; aerobic, Gram -, 10^6 cells/ml): 0.78 µg/mL (≈ 2.26 µM); MIC ([6]; anaerobic, Gram -, 10^6 cells/ml, read-out: MIC): 6.25 µg/mL (≈ 18.1 µM); MIC ([7]; IID976): 0.05 µg/mL (≈ 0.145 µM); MIC ([9]; anaerobic, Gram +, 10^6 cells/ml, read-out: MIC): 6.25 µg/mL (≈ 18.1 µM); MIC ([14]; anaerobic, Gram +, 10^6 cells/ml): 0.39 µg/mL (≈ 1.13 µM); MIC [26]: 0.05 µg/mL (≈ 0.145 µM); MIC [27]: 0.2 µg/mL (≈ 0.579 µM); MIC [28]: 0.39 µg/mL (≈ 1.13 µM); MIC [29]: 3.13 µg/mL (≈ 9.06 µM); MIC [30]: 0.39 µg/mL (≈ 1.13 µM); MIC [31]: 0.39 µg/mL (≈ 1.13 µM); MIC ([32]; read-out: MIC): 0.125 µg/mL (≈ 0.362 µM); MIC ([33]; read-out: MIC): 6.25 µg/mL (≈ 18.1 µM); MIC [34]: 0.05 µg/mL (≈ 0.145 µM); MIC [35]: 0.78 µg/mL (≈ 2.26 µM); MIC [36]: 0.2 µg/mL (≈ 0.579 µM); MIC [37]: 0.05 µg/mL (≈ 0.145 µM); MIC [38]: 0.78 µg/mL (≈ 2.26 µM); MIC [39]: 3.13 µg/mL (≈ 9.06 µM); MIC ([40]; read-out: MIC): 1.56 µg/mL (≈ 4.52 µM)
Cc1c(N2C[C@@H](C)[C@H](N)C2)c(F)cc2c(=O)c(C(=O)O)cn(C3CC3)c12 (relative stereo) [Ex. 27, 7-(3,4-trans-3-Amino-4-methyl-1-pyrrolidinyl)-1-cyclopropyl-6-fluoro-1,4-dihydro-8-methyl-4-oxo-3-quinolinecarboxylic acid] | 0.05 (≈ 0.139 µM) | 0.025 (≈ 0.0696 µM) | 0.39 (≈ 1.09 µM) | 0.0125 (≈ 0.0348 µM) | 0.1 (≈ 0.278 µM) | 0.025 (≈ 0.0696 µM) | 0.39 (≈ 1.09 µM) | 0.05 (≈ 0.139 µM) | 0.025 (≈ 0.0696 µM) | 0.1 (≈ 0.278 µM) | 0.05 (≈ 0.139 µM) | 0.025 (≈ 0.0696 µM) | 0.025 (≈ 0.0696 µM) | 0.0063 (≈ 0.0175 µM) | 0.0063 (≈ 0.0175 µM) | 0.025 (≈ 0.0696 µM) | 0.2 (≈ 0.556 µM) | 0.025 (≈ 0.0696 µM) | 0.025 (≈ 0.0696 µM) | 0.05 (≈ 0.139 µM) | MIC [2]: 0.2 µg/mL (≈ 0.556 µM); MIC [6]: 0.2 µg/mL (≈ 0.556 µM); MIC [7, 41]: 0.0063 µg/mL (≈ 0.0175 µM); MIC [9]: 0.78 µg/mL (≈ 2.17 µM); MIC [14]: 0.05 µg/mL (≈ 0.139 µM); MIC [26]: 0.0063 µg/mL (≈ 0.0175 µM); MIC [27]: 0.05 µg/mL (≈ 0.139 µM); MIC [29]: 0.39 µg/mL (≈ 1.09 µM); MIC [30]: 0.05 µg/mL (≈ 0.139 µM); MIC [31]: 0.1 µg/mL (≈ 0.278 µM); MIC [32]: 0.0063 µg/mL (≈ 0.0175 µM); MIC [33]: 0.39 µg/mL (≈ 1.09 µM); MIC [34]: 0.0125 µg/mL (≈ 0.0348 µM); MIC [35]: 0.05 µg/mL (≈ 0.139 µM); MIC [36]: 0.1 µg/mL (≈ 0.278 µM); MIC [37]: 0.025 µg/mL (≈ 0.0696 µM); MIC [38]: 0.2 µg/mL (≈ 0.556 µM); MIC [39]: 0.78 µg/mL (≈ 2.17 µM); MIC [40]: 0.39 µg/mL (≈ 1.09 µM)
Cc1c(N2C[C@@H](C)[C@@H](N)C2)c(F)cc2c(=O)c(C(=O)O)cn(C3CC3)c12 (relative stereo) [Ex. 28, 7-(3,4-cis-3-Amino-4-methyl-1-pyrrolidinyl)-1-cyclopropyl-6-fluoro-1,4-dihydro-8-methyl-4-oxo-3-quinolinecarboxylic acid] | 0.1 (≈ 0.278 µM) | 0.025 (≈ 0.0696 µM) | 0.39 (≈ 1.09 µM) | 0.0125 (≈ 0.0348 µM) | 0.1 (≈ 0.278 µM) | 0.025 (≈ 0.0696 µM) | 0.39 (≈ 1.09 µM) | 0.05 (≈ 0.139 µM) | 0.025 (≈ 0.0696 µM) | 0.2 (≈ 0.556 µM) | 0.05 (≈ 0.139 µM) | 0.025 (≈ 0.0696 µM) | 0.05 (≈ 0.139 µM) | 0.0063 (≈ 0.0175 µM) | 0.0063 (≈ 0.0175 µM) | 0.025 (≈ 0.0696 µM) | 0.1 (≈ 0.278 µM) | 0.05 (≈ 0.139 µM) | 0.025 (≈ 0.0696 µM) | 0.025 (≈ 0.0696 µM) | MIC ([2]; aerobic, Gram -, 10^6 cells/ml): 0.39 µg/mL (≈ 1.09 µM); MIC [6]: 0.2 µg/mL (≈ 0.556 µM); MIC [7, 41]: 0.0125 µg/mL (≈ 0.0348 µM); MIC [9]: 0.78 µg/mL (≈ 2.17 µM); MIC [14]: 0.05 µg/mL (≈ 0.139 µM); MIC [26]: 0.0063 µg/mL (≈ 0.0175 µM); MIC [27]: 0.05 µg/mL (≈ 0.139 µM); MIC [29]: 0.39 µg/mL (≈ 1.09 µM); MIC [30]: 0.1 µg/mL (≈ 0.278 µM); MIC [31]: 0.1 µg/mL (≈ 0.278 µM); MIC [32]: 0.0063 µg/mL (≈ 0.0175 µM); MIC [33]: 0.78 µg/mL (≈ 2.17 µM); MIC [34]: 0.0125 µg/mL (≈ 0.0348 µM); MIC [35]: 0.1 µg/mL (≈ 0.278 µM); MIC [36]: 0.1 µg/mL (≈ 0.278 µM); MIC [37]: 0.0125 µg/mL (≈ 0.0348 µM); MIC [38]: 0.2 µg/mL (≈ 0.556 µM); MIC [39]: 0.78 µg/mL (≈ 2.17 µM); MIC [40]: 0.39 µg/mL (≈ 1.09 µM)
